Assay results reported in PubChem BioAssay (NCI).
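A five-concentration, 48-hour dose response in 96-well plates underlies each endpoint, interpolated linearly between surrounding concentrations. At the TGI there is no net growth.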

Experiments:
Assay in all cases: NCI tumour cell line growth inhibition, 48 h
[1] = tested on: SK-MEL-28 melanoma
[2] = tested on: NCI-H522 lung
[3] = tested on: SW-620 colon
[4] = tested on: SK-MEL-5 melanoma
[5] = tested on: U251 CNS
[6] = tested on: CAKI-1 renal
[7] = tested on: SNB-75 CNS
[8] = tested on: P388 leukemia
[9] = tested on: SNB-78 CNS
[10] = tested on: RPMI-8226 leukemia
[11] = tested on: COLO 205 colon
[12] = tested on: MCF7 breast
[13] = tested on: DLD-1 colon
[14] = tested on: SK-MEL-2 melanoma
[15] = tested on: XF 498 CNS
[16] = tested on: NCI-H23 lung
[17] = tested on: HCC-2998 colon
[18] = tested on: HCT-116 colon
[19] = tested on: HOP-62 NSCLC
[20] = tested on: MALME-3M melanoma
[21] = tested on: OVCAR-5 ovarian
[22] = tested on: UACC-62 melanoma
[23] = tested on: HT29 colon
[24] = tested on: RXF 393 renal
[25] = tested on: SN12K1 renal
[26] = tested on: A549 NSCLC
[27] = tested on: HL-60(TB) leukemia
[28] = tested on: NCI/ADR-RES ovarian
[29] = tested on: CCRF-CEM leukemia
[30] = tested on: LOX IMVI melanoma
[31] = tested on: SF-539 CNS
[32] = tested on: SF-268 CNS
[33] = tested on: UACC-257 melanoma
[34] = tested on: HOP-18 NSCLC
[35] = tested on: SK-OV-3 ovarian
[36] = tested on: OVCAR-8 ovarian
[37] = tested on: NCI-H226 lung
[38] = tested on: HCT-15 colon
[39] = tested on: M19-MEL melanoma
[40] = tested on: SNB-19 CNS
[41] = tested on: P388/ADR leukemia
[42] = tested on: DMS 273 small cell lung
[43] = tested on: OVCAR-3 ovarian
[44] = tested on: MOLT-4 leukemia
[45] = tested on: K-562 leukemia
[46] = tested on: HOP-92 NSCLC
[47] = tested on: UO-31 renal
[48] = tested on: OVCAR-4 ovarian
[49] = tested on: SF-295 CNS
[50] = tested on: EKVX NSCLC
[51] = tested on: NCI-H460 lung
[52] = tested on: A498 renal
[53] = tested on: SN12C renal
[54] = tested on: KM20L2 colon
[55] = tested on: IGROV1 ovarian
[56] = tested on: KM12 colon

Structure (SMILES): CC1C(=O)CC(c2cccs2)N(N=O)C1c1cccs1 (stereo unspecified)
- TGI [1]: > 100 µM
- TGI [2]: > 100 µM
- TGI [3]: > 100 µM
- TGI [4]: > 100 µM
- TGI [5]: > 100 µM
- TGI [6]: > 100 µM
- TGI [7]: > 74 µM
- TGI [8]: 43.1 µM
- TGI [9]: > 85.2 µM
- TGI [10]: 67.2 µM
- TGI [11]: > 100 µM
- TGI [12]: 88.5 µM
- TGI [13]: > 100 µM
- TGI [14]: > 92.3 µM
- TGI [15]: 45.3 µM
- TGI [16]: > 100 µM
- TGI [17]: > 100 µM
- TGI [18]: > 100 µM
- TGI [19]: > 100 µM
- TGI [20]: > 100 µM
- TGI [21]: > 100 µM
- TGI [22]: > 100 µM
- TGI [23]: > 59.1 µM
- TGI [24]: 81.1 µM
- TGI [25]: > 100 µM
- TGI [26]: > 100 µM
- TGI [27]: > 72.2 µM
- TGI [28]: > 100 µM
- TGI [29]: > 100 µM
- TGI [30]: > 100 µM
- TGI [31]: > 100 µM
- TGI [32]: > 100 µM
- TGI [33]: > 100 µM
- TGI [34]: > 100 µM
- TGI [35]: > 81.2 µM
- TGI [36]: > 100 µM
- TGI [37]: > 100 µM
- TGI [38]: > 100 µM
- TGI [39]: > 100 µM
- TGI [40]: > 100 µM
- TGI [41]: 40.8 µM
- TGI [42]: > 100 µM
- TGI [43]: > 79.5 µM
- TGI [44]: 73.7 µM
- TGI [45]: 27.6 µM
- TGI [46]: 83.3 µM
- TGI [47]: > 100 µM
- TGI [48]: > 100 µM
- TGI [49]: > 100 µM
- TGI [50]: > 100 µM
- TGI [51]: > 100 µM
- TGI [52]: > 70.9 µM
- TGI [53]: > 100 µM
- TGI [54]: > 100 µM
- TGI [55]: > 100 µM
- TGI [56]: > 100 µM
